Experimental data as given in the supplement of paper PMC6045584.
± gives the standard deviation of the averaged measurements.

Tests used:
MK2206 = compound: NC1(c2ccc(-c3nc4ccn5c(=O)[nH]nc5c4cc3-c3ccccc3)cc2)CCC1 [MK2206]; assay: surviving fraction relative to DMSO-only wells; higher = less growth inhibition; conditions: exposure time: 5 days
Summary of the method: (§1)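 Luminescence normalised to the median of DMSO-only wells defines surviving fraction, with viability read by CellTiter-Glo. Signal was recorded after 10 minutes at room temperature, once log-phase tumour cell lines seeded at 250–500 cells per well in 384-well plates had spent 24 hours settling and then five days under continuous exposure to inhibitors at 0.5, 1, 5, 10, 50, 100, 500 and 1000 nM.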

METHOTREXATE = compound: CN(Cc1cnc2nc(N)nc(N)c2n1)c1ccc(C(=O)N[C@@H](CCC(=O)O)C(=O)O)cc1 [METHOTREXATE]; assay: as above; conditions: exposure time: 5 days
Summary of the method: as §1

Test System | surviving fraction (MK2206; 0.5 nM) | surviving fraction (MK2206; 1 nM) | surviving fraction (MK2206; 5 nM) | surviving fraction (MK2206; 10 nM) | surviving fraction (MK2206; 50 nM) | surviving fraction (MK2206; 100 nM) | surviving fraction (MK2206; 500 nM) | surviving fraction (MK2206; 1000 nM) | surviving fraction (METHOTREXATE; 0.5 nM) | surviving fraction (METHOTREXATE; 1 nM) | surviving fraction (METHOTREXATE; 5 nM) | surviving fraction (METHOTREXATE; 10 nM) | surviving fraction (METHOTREXATE; 50 nM) | surviving fraction (METHOTREXATE; 100 nM) | surviving fraction (METHOTREXATE; 500 nM) | surviving fraction (METHOTREXATE; 1000 nM)
HCC38 BREAST | 1.36 ± 0.11 | 1.33 ± 0.26 | 1.36 ± 0.073 | 1.32 ± 0.12 | 1.32 ± 0.23 | 1.15 ± 0.083 | 1.11 ± 0.048 | 0.898 ± 0.12 | 1.39 ± 0.32 | 1.22 ± 0.13 | 1.37 ± 0.2 | 1.43 ± 0.15 | 1.05 ± 0.28 | 0.803 ± 0.038 | 0.385 ± 0.086 | 0.359 ± 0.032
HCC70 BREAST | 1.03 ± 0.063 | 1.1 ± 0.08 | 1.13 ± 0.11 | 1.1 ± 0.12 | 0.93 ± 0.076 | 0.869 ± 0.094 | 0.39 ± 0.033 | 0.312 ± 0.014 | 1.04 ± 0.079 | 1.14 ± 0.092 | 1.01 ± 0.09 | 1.12 ± 0.046 | 0.842 ± 0.043 | 0.789 ± 0.023 | 0.763 ± 0.025 | 0.787 ± 0.041
HCC78 LUNG | 0.785 ± 0.17 | 0.975 ± 0.05 | 1.12 ± 0.2 | 0.998 ± 0.21 | 0.848 ± 0.073 | 0.529 ± 0.13 | 0.33 ± 0.14 | 0.192 ± 0.076 | 1 ± 0.064 | 0.847 ± 0.19 | 0.914 ± 0.12 | 0.831 ± 0.13 | 0.503 ± 0.056 | 0.448 ± 0.058 | 0.421 ± 0.032 | 0.41 ± 0.039
HCC202 BREAST | 1.07 ± 0.091 | 1.08 ± 0.12 | 1.2 ± 0.16 | 1.2 ± 0.074 | 0.699 ± 0.37 | 0.688 ± 0.035 | 0.238 ± 0.012 | 0.238 ± 0.0064 | 1.3 ± 0.45 | 1.26 ± 0.38 | 1.21 ± 0.097 | 1 ± 0.25 | 1.14 ± 0.16 | 1.16 ± 0.37 | 0.945 ± 0.21 | 1.15 ± 0.13
HCC1806 BREAST | 1.02 ± 0.074 | 1.1 ± 0.021 | 1.15 ± 0.19 | 1.14 ± 0.05 | 1.05 ± 0.072 | 1.02 ± 0.099 | 0.828 ± 0.013 | 0.682 ± 0.015 | 1.13 ± 0.11 | 1.11 ± 0.098 | 0.503 ± 0.063 | 0.445 ± 0.03 | 0.263 ± 0.01 | 0.227 ± 0.017 | 0.244 ± 0.0074 | 0.254 ± 0.016
HCC1954 BREAST | 1.06 ± 0.16 | 0.988 ± 0.088 | 1.14 ± 0.14 | 1.18 ± 0.13 | 0.896 ± 0.035 | 0.9938 ± 0.0039 | 0.482 ± 0.082 | 0.304 ± 0.0067 | 1.26 ± 0.04 | 1.16 ± 0.024 | 1.42 ± 0.14 | 1.3 ± 0.18 | 1.17 ± 0.11 | 0.997 ± 0.16 | 1.09 ± 0.13 | 0.849 ± 0.18
HCT15 LARGE INTESTINE | 1.04 ± 0.042 | 1.07 ± 0.048 | 1.08 ± 0.052 | 1.07 ± 0.064 | 1.02 ± 0.063 | 1.07 ± 0.025 | 0.942 ± 0.073 | 0.928 ± 0.026 | 1.08 ± 0.046 | 1.05 ± 0.13 | 1.04 ± 0.13 | 0.749 ± 0.18 | 0.138 ± 0.014 | 0.102 ± 0.017 | 0.137 ± 0.019 | 0.134 ± 0.015
HELA CERVIX | 1.03 ± 0.037 | 1.15 ± 0.043 | 1.12 ± 0.073 | 1.09 ± 0.12 | 1.02 ± 0.057 | 1.09 ± 0.035 | 1.08 ± 0.031 | 1.19 ± 0.051 | 1.06 ± 0.044 | 1.027 ± 0.0067 | 1.03 ± 0.039 | 1.02 ± 0.018 | 0.712 ± 0.085 | 0.332 ± 0.018 | 0.282 ± 0.012 | 0.288 ± 0.016
HMLE3 BREAST | 1.06 ± 0.11 | 1.13 ± 0.047 | 1.08 ± 0.01 | 1.09 ± 0.044 | 0.895 ± 0.14 | 0.843 ± 0.098 | 0.717 ± 0.052 | 0.617 ± 0.018 | 0.98 ± 0.057 | 1.03 ± 0.13 | 1.07 ± 0.046 | 0.985 ± 0.037 | 0.575 ± 0.051 | 0.639 ± 0.062 | 0.522 ± 0.026 | 0.513 ± 0.037
HMT3552 BREAST | 1.05 ± 0.029 | 1.05 ± 0.02 | 1.1 ± 0.03 | 1.02 ± 0.033 | 1.03 ± 0.041 | 0.909 ± 0.076 | 0.692 ± 0.02 | 0.62 ± 0.014 | 1.07 ± 0.063 | 1 ± 0.036 | 1.04 ± 0.069 | 1.03 ± 0.051 | 0.604 ± 0.06 | 0.282 ± 0.02 | 0.182 ± 0.0061 | 0.171 ± 0.008
HOS BONE | 1.02 ± 0.013 | 1.03 ± 0.026 | 1.03 ± 0.0087 | 1.05 ± 0.038 | 0.978 ± 0.021 | 0.948 ± 0.021 | 0.822 ± 0.038 | 0.79 ± 0.012 | 1.02 ± 0.036 | 0.999 ± 0.024 | 0.252 ± 0.018 | 0.223 ± 0.0095 | 0.232 ± 0.013 | 0.226 ± 0.0083 | 0.218 ± 0.01 | 0.214 ± 0.018
HOSMNG BONE | 0.865 ± 0.1 | 0.936 ± 0.1 | 0.907 ± 0.082 | 0.846 ± 0.1 | 0.773 ± 0.076 | 0.802 ± 0.15 | 0.752 ± 0.064 | 0.678 ± 0.027 | 0.844 ± 0.14 | 0.864 ± 0.049 | 0.84 ± 0.047 | 0.248 ± 0.019 | 0.212 ± 0.016 | 0.316 ± 0.011 | 0.341 ± 0.015 | 0.353 ± 0.0087
HS57T BREAST | 0.979 ± 0.037 | 1 ± 0.07 | 1.02 ± 0.051 | 1.07 ± 0.056 | 0.962 ± 0.013 | 0.938 ± 0.05 | 0.747 ± 0.012 | 0.658 ± 0.092 | 1 ± 0.11 | 1.03 ± 0.075 | 1.03 ± 0.032 | 0.985 ± 0.12 | 0.252 ± 0.025 | 0.226 ± 0.013 | 0.205 ± 0.018 | 0.214 ± 0.0081
HS578T BREAST | 1.06 ± 0.17 | 1 ± 0.084 | 1.02 ± 0.087 | 1.04 ± 0.15 | 1.03 ± 0.19 | 0.829 ± 0.08 | 0.652 ± 0.064 | 0.618 ± 0.028 | 1.04 ± 0.19 | 1.17 ± 0.17 | 1.19 ± 0.2 | 1.15 ± 0.058 | 0.518 ± 0.069 | 0.438 ± 0.012 | 0.375 ± 0.011 | 0.418 ± 0.011
HSSYII SYNOVIAL | 0.937 ± 0.019 | 0.9935 ± 0.0096 | 0.93 ± 0.042 | 0.984 ± 0.043 | 0.903 ± 0.059 | 0.921 ± 0.037 | 0.773 ± 0.024 | 0.738 ± 0.032 | 0.995 ± 0.049 | 0.996 ± 0.048 | 1 ± 0.051 | 0.969 ± 0.029 | 0.822 ± 0.035 | 0.834 ± 0.081 | 0.755 ± 0.045 | 0.78 ± 0.043
HT1080 SOFT TISSUE | 1.04 ± 0.028 | 1.02 ± 0.018 | 1.04 ± 0.018 | 1.06 ± 0.043 | 1.05 ± 0.026 | 1.05 ± 0.012 | 0.997 ± 0.049 | 0.951 ± 0.044 | 1.04 ± 0.021 | 1.06 ± 0.029 | 1.02 ± 0.04 | 0.493 ± 0.043 | 0.253 ± 0.023 | 0.257 ± 0.0082 | 0.259 ± 0.0081 | 0.265 ± 0.03
